Source: paper PMC6920777, “Pharmacokinetic Alteration of Paclitaxel by Ferulic Acid Derivative” (Pharmaceutics, 2019)
Like-named read-outs stand apart in the source and are kept apart here.

Key:
MCF-7/ADR cells [1] = test: Cytotoxicity of DNM with FA derivatives, SRB assay; format: cell-based, human; settings: for IC50 of DNM as fraction of negative control (DNM alone) value: derivative 100 µM
Method: The effect of eight FA derivatives on cytotoxicity was studied in P-gp overexpressed human breast cancer cells (MCF-7/ADR) using the SRB assay. The details of the cell culture condition and the assay method were presented in our previous reports. […] The assay was performed in triplicate.

human P-gp membranes = molecular target: T1, human P-gp membranes (Homo sapiens, UniProt P08183); test: Human P-glycoprotein ATPase activity assay; format: biochemical; settings: for P-gp ATPase activity, ratio of blank (control): human P-gp membranes
T1 construct: purchased
Method: The ATPase activities were expressed as the rate of phosphate release per milligram of membrane protein and converted to the relative ratio versus the control. This assay was performed in duplicate.

MCF-7/ADR cells [2] = test: Toxic effect of each derivative and VER alone (cell survival); format: cell-based; settings: Homo sapiens, NCI/ADR-RES, 2 h incubation, read-out: cell survival ratio; for viability at 5 µM: mean (SD); for viability at 10 µM / viability at 25 µM / viability at 50 µM / viability at 100 µM: mean
Method: The effect of eight FA derivatives on cytotoxicity was studied in P-gp overexpressed human breast cancer cells (MCF-7/ADR) using the SRB assay. The details of the cell culture condition and the assay method were presented in our previous reports. […] The assay was performed in triplicate. […]
Data are presented as mean ± SD.
The numerical data were represented the cell survival ratio.

[3] = Pharmacokinetic study of oral PTX alone or co-administered with compound 5c; format: in vivo, male Sprague-Dawley rats
Method: The pharmacokinetic (PK) study was performed using male Sprague-Dawley rats (6 weeks old and 200 g–235 g) commercially available from Orient Bio (Seongnam, Korea). All animal procedures were approved by the Institutional Animal Care and Use Committee of Ewha Womans University (No. 2012-01-019, approved on 3 April 2012), Republic of Korea.
Rats were divided into the following 4 groups: Oral administration (PO) of PTX (25 mg/kg) alone and co-administration of PTX (25 mg/kg) with compound 5c at three different doses (0.5, 2 and 5 mg/kg). Each group had 5 rats except for a group of 2 mg/kg dose (n = 4). The blood samples (0.2 mL) were collected from the common carotid artery at 0, 0.25, 0.5, 1, 2, 3, 4, 6, 8, 10 and 24 h.
PTX concentrations in rat plasma were analyzed by Agilent HP1100 series system using a Capcell-pak C18 MG120 column (3 mm × 250 mm, 5 µm, Shiseido, Tokyo, Japan). The samples were eluted with mobile phase composed of acetonitrile and 0.1% phosphoric acid (1/1, v/v) at a flow rate of 0.5 mL/min for 30 min and detected at a wavelength of 227 nm. The HPLC-UV method was validated by FDA guidelines as follows: Specificity (PTX: 14.8 min; internal standard: 26.7 min), linearity over the concentration range between 0.01 and 10 µg/mL, lower limit of quantification (0.01 µg/mL) and intra-/inter-day precision and accuracy (2.4–9.1% and 92.1–102.7%, respectively). All other details for sample preparation and quantification of PTX concentrations in rat plasma were reported previously.
The following PK parameters of PTX after oral single dosing to rats were estimated by non-compartmental analysis using WinNonlin® Professional version 5.2 software (Pharsight Corporation, Mountain View, CA, USA): The area under the plasma concentration-time curve from 0 h to infinity (AUCinf), elimination half-life (t1/2), apparent volume of distribution after oral single dosing (Vz/F), oral clearance (Cl/F), maximum plasma concentration (Cmax) and the time required to reach Cmax (Tmax). The relative bioavailability (RB, %) of PTX was calculated with the following formula: RB ( % )=AUCinf po co−administraion/AUCinf po control×100
AUCinf po control is the AUCinf obtained from oral single administration of PTX alone, and AUCinf po co-administration is the AUCinf obtained from oral single co-administration of PTX and compound 5c.

MCF-7/ADR cells [4] = test: [3H]-daunomycin efflux study; format: cell-based, human
Method: (§1) The methods for [^3H]-DNM accumulation and efflux studies were reported previously. […] The experiments were performed in triplicate.
(§2) [^3H]-DNM uptake and efflux were determined after the incubation with each derivative (100 µM) for 2 h and 1 h, respectively. […] Control represents accumulation or efflux of tritium labeled DNM alone.

MCF-7/ADR cells [5] = test: [3H]-daunomycin accumulation study; format: cell-based, human; settings: 100 µM, 2 h incubation, mean ± SD, triplicate
Method: as §1, §2

[6] = parameters: method as in PMID 24373826; settings: humans; cited from earlier work
[7] = parameters: method as in PMID 24373826; settings: rats; cited from earlier work
[8] = 100 µM, 1 h incubation, mean ± SD, triplicate

T1 sequence (P08183 whole entry): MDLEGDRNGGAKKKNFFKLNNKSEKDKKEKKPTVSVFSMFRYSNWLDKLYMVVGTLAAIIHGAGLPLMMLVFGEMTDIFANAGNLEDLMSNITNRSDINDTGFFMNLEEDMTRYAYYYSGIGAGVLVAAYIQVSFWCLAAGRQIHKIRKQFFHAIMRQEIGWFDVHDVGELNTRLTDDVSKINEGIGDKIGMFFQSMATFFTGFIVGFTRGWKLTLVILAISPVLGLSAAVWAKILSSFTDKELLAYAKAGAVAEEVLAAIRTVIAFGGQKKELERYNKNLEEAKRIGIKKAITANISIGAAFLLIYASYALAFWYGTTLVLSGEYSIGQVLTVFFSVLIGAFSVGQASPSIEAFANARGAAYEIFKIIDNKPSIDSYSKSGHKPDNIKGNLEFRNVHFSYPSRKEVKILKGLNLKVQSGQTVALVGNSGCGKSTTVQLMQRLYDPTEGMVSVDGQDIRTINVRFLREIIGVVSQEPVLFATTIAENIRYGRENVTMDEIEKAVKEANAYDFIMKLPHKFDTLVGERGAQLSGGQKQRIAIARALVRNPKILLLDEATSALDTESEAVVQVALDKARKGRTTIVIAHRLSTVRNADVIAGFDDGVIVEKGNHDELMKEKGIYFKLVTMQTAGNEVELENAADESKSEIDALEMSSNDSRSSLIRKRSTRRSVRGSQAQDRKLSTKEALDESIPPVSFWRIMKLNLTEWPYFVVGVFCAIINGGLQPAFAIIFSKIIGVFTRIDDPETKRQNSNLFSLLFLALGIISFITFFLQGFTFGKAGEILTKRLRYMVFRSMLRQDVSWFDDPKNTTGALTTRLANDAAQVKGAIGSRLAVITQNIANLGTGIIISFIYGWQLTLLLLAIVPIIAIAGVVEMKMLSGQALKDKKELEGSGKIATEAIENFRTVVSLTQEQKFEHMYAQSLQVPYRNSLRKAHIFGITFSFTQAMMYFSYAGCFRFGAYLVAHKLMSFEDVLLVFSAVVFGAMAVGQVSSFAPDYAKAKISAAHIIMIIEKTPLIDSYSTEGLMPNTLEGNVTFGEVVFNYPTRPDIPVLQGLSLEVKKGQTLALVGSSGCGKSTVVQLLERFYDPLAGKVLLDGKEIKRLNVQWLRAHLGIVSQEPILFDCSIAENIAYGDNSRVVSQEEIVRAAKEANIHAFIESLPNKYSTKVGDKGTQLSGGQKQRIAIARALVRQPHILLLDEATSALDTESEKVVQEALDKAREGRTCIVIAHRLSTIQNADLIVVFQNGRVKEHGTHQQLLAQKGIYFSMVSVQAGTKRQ

| Compound | IC50 of DNM as fraction of negative control (DNM alone) value (MCF-7/ADR cells [1]) | P-gp ATPase activity, ratio of blank (control) (human P-gp membranes; 20 μM) | P-gp ATPase activity, ratio of blank (control) (human P-gp membranes; 50 μM) | P-gp ATPase activity, ratio of blank (control) (human P-gp membranes; 100 μM) | viability at 5 µM (MCF-7/ADR cells [2]) | viability at 10 µM (MCF-7/ADR cells [2]) | viability at 25 µM (MCF-7/ADR cells [2]) | viability at 50 µM (MCF-7/ADR cells [2]) | viability at 100 µM (MCF-7/ADR cells [2]) | melting point | also measured |
| --- | --- | --- | --- | --- | --- | --- | --- | --- | --- | --- | --- |
| COc1cc(/C=C/C(=O)N2CCCCC2)ccc1OCc1ccccc1 [Compound 5c, (E)-3-(4-benzyloxy-3-methoxyphenyl)-1-(piperidin-1-yl)prop-2-en-1-one] | about 1/5 | 1.54 | 2.48 | 4.02 | 101% | 98.5% | 96.1% | 96.9% | 87.6% |  | Concentration dependence of P-gp ATPase activity (human P-gp membranes; 20, 50 and 100 μM): stably increased ATPase activity in a concentration-dependent manner; Cl/F of PTX ([3]; PTX 25 mg/kg PO co-administered with compound 5c 2 mg/kg, rats): 4.10 ± 1.53 L/h; Cl/F of PTX ([3]; PTX 25 mg/kg PO co-administered with compound 5c 5 mg/kg, rats): 4.53 ± 1.04 L/h; Effect on PK parameters of PTX ([3]; compound 5c 0.5 mg/kg co-administered, compared to PO control (PTX alone)): did not alter any PK parameters of PTX; Improvement of the BA of PTX ([3]; compound 5c 5 mg/kg co-administered with PTX in rats): approximately twofold; efflux of [3H]-DNM (MCF-7/ADR cells [4]; [8]): 43.1 ± 4.6%; accumulation of [3H]-DNM (MCF-7/ADR cells [5]): 438.4 ± 4.9% |
| CCCOc1ccc(/C=C/C(=O)N2CCCCC2)cc1OC [Compound 5a, (E)-3-(3-methoxy-4-propoxyphenyl)-1-(piperidin-1-yl)prop-2-en-1-one] |  |  |  |  | 96.5% | 94.1% | 96% | 93.8% | 87.8% | 91 to 92 °C |  |
| COc1cc(/C=C/C(=O)N2CCCCC2)ccc1OCC(C)C [Compound 5b, (E)-3-(4-isobutoxy-3-methoxyphenyl)-1-(piperidin-1-yl)prop-2-en-1-one] |  |  |  |  | 101% | 97.8% | 96.1% | 96.1% | 92% | 96 to 97 °C |  |
| CCCOc1ccc(/C=C/C(=O)N(C)Cc2ccccc2)cc1OC [Compound 5f, (E)-N-benzyl-3-(3-methoxy-4-propoxyphenyl)-N-methylacrylamide] | about 1/5 | 2.85 | 3.12 | 3.35 | 98.9% | 99.4% | 100% | 96.9% | 92.8% |  |  |
| COc1cccc2c1C(=O)c1c(O)c3c(c(O)c1C2=O)C[C@@](O)(C(C)=O)C[C@@H]3O[C@H]1C[C@H](N)[C@H](O)[C@H](C)O1 [DNM, daunomycin, reference compound] |  |  |  |  |  |  |  |  |  |  | IC50 (MCF-7/ADR cells [1]; Homo sapiens, NCI/ADR-RES, negative control: DNM alone, incubation): 31.7 µM; efflux of [3H]-DNM (MCF-7/ADR cells [4]; control: tritium labeled DNM alone, 1 h): 63.0 ± 3.3% |
| CCCOc1ccc(/C=C/C(=O)N2CCC(O)(c3ccccc3)CC2)cc1OC [Compound 5h, (E)-1-(4-hydroxy-4-phenylpiperidin-1-yl)-3-(3-methoxy-4-propoxyphenyl) prop-2-en-1-one] | about 1/5 | 3.99 | 2.69 | 2.79 | 103% | 99.2% | 94.6% | 89.4% | 89.6% | 163 to 164 °C | efflux of [3H]-DNM (MCF-7/ADR cells [4]; [8]): 43.3 ± 0.9%; accumulation of [3H]-DNM (MCF-7/ADR cells [5]): 426.1 ± 26.2% |
| COc1cc(/C=C/C(=O)O)ccc1O [FA, Ferulic acid] |  |  |  |  |  |  |  |  |  |  | Time within which FA is absorbed in the intestine [6]: ≤ 30 min; Time within which FA is absorbed in the intestine [7]: 5 to 15 min |
| COc1cc(/C=C/C(=O)N(C)C)ccc1OCc1ccccc1 [Compound 5g, (E)-3-(4-benzyloxy-3-methoxyphenyl)-N,N-dimethylacrylamide] | about 1/5 | 1.26 | 1.77 | 5.19 | 104% | 102% | 100% | 99.3% | 102% | 135 to 136 °C |  |
| COc1cc(/C=C/C(=O)N(C)C)ccc1OCC(C)C [Compound 5e, (E)-3-(4-isobutoxy-3-methoxyphenyl)-N,N-dimethylacrylamide] |  |  |  |  | 100% | 99.4% | 95.8% | 95% | 94.8% | 109 to 111 °C | efflux of [3H]-DNM (MCF-7/ADR cells [4]; [8]): 39.9 ± 3.8%; accumulation of [3H]-DNM (MCF-7/ADR cells [5]): 382.1 ± 20.4% |
| CCCOc1ccc(/C=C/C(=O)N(C)C)cc1OC [Compound 5d, (E)-3-(3-methoxy-4-propoxyphenyl)-N,N-dimethylacrylamide] |  |  |  |  | 102% | 97.8% | 97.1% | 97.1% | 96.2% | 108 to 109 °C |  |
| CC(=O)O[C@H]1C(=O)[C@@]2(C)[C@H]([C@H](OC(=O)c3ccccc3)[C@]3(O)C[C@H](OC(=O)[C@H](O)[C@@H](NC(=O)c4ccccc4)c4ccccc4)C(C)=C1C3(C)C)[C@]1(OC(C)=O)CO[C@@H]1C[C@@H]2O [PTX, Paclitaxel] |  |  |  |  |  |  |  |  |  |  | Cl/F of PTX ([3]; PTX 25 mg/kg PO alone, rats): 8.22 ± 1.84 L/h; Cmax of PTX ([3]; PTX 25 mg/kg PO alone, rats): 187 ± 41 ng/mL; AUC(0-inf) ([3]; male, Sprague-Dawley, rat, plasma, PTX 25 mg/kg PO alone, rats, read-out: AUCinf of PTX): 773 ± 169 ng·h/mL; Vd/F ([3]; male, Sprague-Dawley, rat, plasma, PTX 25 mg/kg PO alone, rats, read-out: Vz/F of PTX): 35.1 ± 16.8 L; half-life ([3]; male, Sprague-Dawley, rat, plasma, PTX 25 mg/kg PO alone, rats, read-out: t1/2 of PTX (converted)): 2.8 ± 0.86 h |
